Results as given in publication PMC7321382, “Synthesis and Antibacterial Analysis of Analogues of the Marine Alkaloid Pseudoceratidine” (Molecules, 2020).
≈ marks a conversion by molar mass, not a printed value.

Assays:
E. coli DH5α = assay: Antibacterial MIC, broth microdilution, E. coli; assay type: cell-based, Escherichia coli; details: for MIC: Escherichia coli, Gram-negative, 24 h incubation, highest concentration tested 128 µM, † lower starting concentration due to insolubility
Experimental: (§1) The MIC was determined using the broth microdilution method. Mueller Hinton (MH) broth base was prepared in milli-Q water, then autoclaved at 120 °C for 1 h before allowing it to cool to room temperature. A single colony of each bacterial strain (E. coli DH5α and S. aureus 16207) was inoculated in MHB and incubated at 37 °C overnight. Overnight cultures were adjusted to 10^6 CFU/mL in MHB according to the McFarland Standard,100 μL of which was further diluted to a total of 10 mL in the media. The stock solutions of the compounds were prepared at 12.8 mM in purified DMSO. The stock solutions were further diluted in milli-Q water to 64 μM in 0.5% DMSO for testing against S. aureus, and 256 μM in 2% DMSO for testing against E. coli. Compounds that were not soluble in these solvent mixtures were further diluted in half to get clear solutions for the bioassay. DMSO is known to have weak antibacterial activity. To exclude the antibacterial effect of DMSO from the results, a solution of 2% DMSO in milli-Q water was used as an additional control in the experiments. The compounds and three controls (the natural product pseudoceratidine 1 for both strains, streptomycin for S. aureus, and polymyxin B for E. coli) then underwent a dilution series. The assay was performed by adding 50 μL of each compound solution at the different concentrations and 50 μL of the diluted bacterial culture to the different wells of a 96-well microtiter plate. The experiments were performed at least thrice and in triplicates. MIC after 24 h of incubation was determined by both visual inspection and absorbance at 600 nm using an EnSpire Multimode plate reader.

S. aureus 16207 = assay: Antibacterial MIC, broth microdilution, S. aureus; assay type: cell-based, Staphylococcus aureus; details: Gram-positive, 24 h incubation, highest concentration tested 32 µM; for MIC: Staphylococcus aureus, 16207
Experimental: as §1

[1] = tested on: HEK293 human embryonic kidney cells; assay: Cytotoxicity, sulforhodamine B cell proliferation assay; assay type: cell-based; details: for relative growth of HEK293 cells (% of untreated control) at 16 µM: Homo sapiens, 72 h, 16 µM compound, 3 days, relative to control with no treatment, mean ± SD of triplicates; for cytotoxic activity (in words): HEK293, at concentrations 2–4 times the MIC (16 µM)
Experimental: As described previously, cell proliferation was measured by sulforhodamine B colorimetric assay in which 2000 HEK293 human embryonic kidney cells were seeded in 96-well plates in the presence of varying concentrations of drugs. The sulforhodamine B colorimetric assay, which is based on the measurement of cellular protein content, was used to measure cell density. After drug treatment for 3 days, cells were fixed with 10% (w/v) trichloroacetic acid and stained with 0.057% (w/v) sulforhodamine B for 30 min, and the excess dye was removed by washing repeatedly with 1% (v/v) acetic acid. The protein-bound dye was dissolved in Tris base solution (10 mM) for optical density determination at 510 nm using a microplate reader. All experiments were done in triplicate, and were repeated at least twice. The optimal cell densities were previously determined to select initial cell densities that ensured that the cells were in the logarithmic phase for the experiments.

HepG2 liver cell line = tested on: HepG2 liver cell line; design: method as in PMID 29297684; details: compared with HEK293 result; cited from earlier work
Staphylococcus aureus = tested on: Staphylococcus aureus; design: method as in doi:10.1016/S0960-894X(96)00622-1, doi:10.1016/S0040-4020(98)00340-8, doi:10.1016/0040-4039(96)01310-X; details: Gram-positive; cited from earlier work
Pseudomonas aeruginosa = tested on: Pseudomonas aeruginosa; design: method as in doi:10.1016/S0960-894X(96)00622-1, doi:10.1016/S0040-4020(98)00340-8, doi:10.1016/0040-4039(96)01310-X; details: Gram-negative; cited from earlier work
Escherichia coli = tested on: Escherichia coli; design: method as in doi:10.1016/S0960-894X(96)00622-1, doi:10.1016/S0040-4020(98)00340-8, doi:10.1016/0040-4039(96)01310-X; details: Gram-negative; cited from earlier work
Balanus amphitrite = tested on: Balanus amphitrite; design: method as in doi:10.1016/0040-4039(96)00025-1; details: marine larval organism Balanus amphitrite; cited from earlier work
Plasmodium falciparum = tested on: Plasmodium falciparum; design: method as in PMID 29297684; details: anti-malarial; cited from earlier work
Listeria monocytogenes = tested on: Listeria monocytogenes; design: method as in doi:10.1016/S0960-894X(96)00622-1, doi:10.1016/S0040-4020(98)00340-8, doi:10.1016/0040-4039(96)01310-X; details: Gram-positive; cited from earlier work
Candida albicans = tested on: Candida albicans; design: method as in doi:10.1016/S0960-894X(96)00622-1, doi:10.1016/S0040-4020(98)00340-8, doi:10.1016/0040-4039(96)01310-X; details: anti-fungal; cited from earlier work

Compound | MIC (E. coli DH5α) [µM] | MIC S. Aureus (S. aureus 16207) [µM] | MIC (S. aureus 16207) [µM] | melting point [°C] | relative growth of HEK293 cells (% of untreated control) at 16 µM [1] [%] | also measured
O=C(NCCCNCCCNC(=O)c1cc(Br)c(Br)[nH]1)c1cc(Br)c(Br)[nH]1 [Compound 14e] | 32 to 64 (≈ 20.3 to 40.5 µg/mL) | 8 to 16 | 8 to 16 (≈ 5.06 to 10.1 µg/mL) | 135 to 137 | 1.1 ± 0.9 | –
O=C(NCCCCCCNCCCCCCNC(=O)c1cc(Cl)c(Cl)[nH]1)c1cc(Cl)c(Cl)[nH]1 [Compound 15c] | 32 to 64 (≈ 17.3 to 34.5 µg/mL) | 4 to 8 | 4 to 8 (≈ 2.16 to 4.31 µg/mL) | 189 to 190 | 1.8 ± 2 | –
O=C(NCCCCCCNCCCCCCNC(=O)c1cc(Br)c(Br)[nH]1)c1cc(Br)c(Br)[nH]1 [Compound 15e] | 16 to 32 (≈ 11.5 to 22.9 µg/mL) | 4 to 8 | 4 to 8 (≈ 2.87 to 5.74 µg/mL) | – | 1.3 ± 0.8 | –
O=C(NCCCNCCNC(=O)c1cc(Br)c(Br)[nH]1)c1cc(Br)c(Br)[nH]1 [Compound 16e] | 64 to 128 (≈ 39.6 to 79.2 µg/mL) | 8 to 16 | 8 to 16 (≈ 4.95 to 9.9 µg/mL) | 206 to 208 | 2.6 ± 2 | –
O=C(NCCCNCCCCNCCCNC(=O)c1ccc[nH]1)c1ccc[nH]1 [Compound 19a] | > 128 | – | > 32 | 175 to 176 | – | –
O=C(NCCCNCCCCNCCCNC(=O)c1cc(Cl)c[nH]1)c1cc(Cl)c[nH]1 [Compound 19b] | > 128 | – | > 32 | 194 to 195 | – | –
O=C(NCCCNCCCCNCCCNC(=O)c1cc(Cl)c(Cl)[nH]1)c1cc(Cl)c(Cl)[nH]1 [Compound 19c] | 128 to 256 (≈ 67.4 to 135 µg/mL) | 4 to 8 | 4 to 8 (≈ 2.11 to 4.21 µg/mL) | 110 to 112 | 1.6 ± 2 | –
O=C(NCCCNCCCCNCCCNC(=O)c1cc(Br)c(Br)[nH]1)c1cc(Br)c(Br)[nH]1 [Compound 19e] | 32 to 64 (≈ 22.5 to 45.1 µg/mL) | 2 to 4 | 2 to 4 (≈ 1.41 to 2.82 µg/mL) | – | 94.5 ± 5.9 | cytotoxic activity (in words) [1]: almost no cytotoxic activity; cytotoxicity versus HepG2 (in words) (HepG2 liver cell line): far less toxic
CN(C)CCCNC(=O)c1cc(I)c[nH]1 [Compound 27f] | > 128 | – | > 32 | 169 to 171 | – | –
CC(C)(C)OC(=O)NCCCNC(=O)c1ccc[nH]1 [Compound 28a] | > 128 | – | > 32 | 90 to 91 | – | –
CC(C)(C)OC(=O)NCCCNC(=O)c1cc(I)c[nH]1 [Compound 28f] | > 128 | – | > 32 | 128 to 130 | – | –
O=C(NCCCCNCCCNC(=O)c1cc(Br)c(Br)[nH]1)c1cc(Br)c(Br)[nH]1 [Pseudoceratine 1, pseudoceratidine] | 32 to 64 (≈ 20.7 to 41.4 µg/mL) | 8 to 16 | 8 to 16 (≈ 5.18 to 10.4 µg/mL) | – | 0.7 ± 0.8 | MIC Staphylococcus aureus (Staphylococcus aureus): 4 µg/mL (≈ 6.18 µM); MIC Pseudomonas aeruginosa (Pseudomonas aeruginosa): 128 µg/mL (≈ 198 µM); MIC Escherichia coli (Escherichia coli): 32 µg/mL (≈ 49.5 µM); EC50 antifouling (Balanus amphitrite): 8 µg/mL (≈ 12.4 µM); EC50 (Plasmodium falciparum): 1000 nM; MIC Listeria monocytogenes (Listeria monocytogenes): 5 µg/mL (≈ 7.73 µM); MIC Candida albicans (Candida albicans): 32 µg/mL (≈ 49.5 µM)

More lines, main results first:

MIC (E. coli DH5α) [µM] | MIC S. Aureus (S. aureus 16207) [µM] | MIC (S. aureus 16207) [µM] | melting point [°C] | Compound | relative growth of HEK293 cells (% of untreated control) at 16 µM [1] [%] | also measured
64 to 128 (≈ 29.1 to 58.3 µg/mL) | 8 to 16 | 8 to 16 (≈ 3.64 to 7.28 µg/mL) | 189 to 190 | O=C(NCCCNCCCNC(=O)c1cc(Cl)c(Cl)[nH]1)c1cc(Cl)c(Cl)[nH]1 [Compound 14c] | 0.5 ± 0.3 | –
32 to 64 (≈ 14.1 to 28.2 µg/mL) | 16 to 32 | 16 to 32 (≈ 7.06 to 14.1 µg/mL) | 133 to 135 | O=C(NCCCNCCNC(=O)c1cc(Cl)c(Cl)[nH]1)c1cc(Cl)c(Cl)[nH]1 [Compound 16c] | 2.5 ± 1.8 | activity against Gram-negative bacteria compared with 1 (in words) (E. coli DH5α): equivalents activity to 1
32 to 64 (≈ 16.4 to 32.8 µg/mL) | 4 to 8 | 4 to 8 (≈ 2.05 to 4.1 µg/mL) | 109 to 111 | O=C(NCCCNCCCNCCCNC(=O)c1cc(Cl)c(Cl)[nH]1)c1cc(Cl)c(Cl)[nH]1 [Compound 18c] | 98 ± 4.5 | cytotoxic activity (in words) [1]: almost no cytotoxic activity
32 to 64 (≈ 22.1 to 44.2 µg/mL) | 2 to 4 | 2 to 4 (≈ 1.38 to 2.76 µg/mL) | – | O=C(NCCCNCCCNCCCNC(=O)c1cc(Br)c(Br)[nH]1)c1cc(Br)c(Br)[nH]1 [Compound 18e] | 2.1 ± 1.5 | –
64 to 128 (≈ 40.1 to 80.2 µg/mL) | – | 16 to 32 (≈ 10 to 20 µg/mL) | 78 to 80 | O=C(NCCCNCCCNCCCNC(=O)c1cc(I)c[nH]1)c1cc(I)c[nH]1 [Compound 18f] | – | –
64 to 128 (≈ 35 to 69.9 µg/mL) | – | 16 to 32 (≈ 8.74 to 17.5 µg/mL) | 173 to 175 | O=C(NCCCNCCCCNCCCNC(=O)c1cc(Br)c[nH]1)c1cc(Br)c[nH]1 [Compound 19d] | – | –
> 128 | – | 16 to 32 (≈ 10.2 to 20.5 µg/mL) | 173 to 175 | O=C(NCCCNCCCCNCCCNC(=O)c1cc(I)c[nH]1)c1cc(I)c[nH]1 [Compound 19f] | – | –
> 128 | – | > 32 | 158 to 160 | CC(C)(C)OC(=O)NCCCNC(=O)c1cc(Cl)c(Cl)[nH]1 [Compound 28c] | – | –
